Measured values taken from patent US4087450A, “(Polychlorophenoxy) methyl esters of thiocyanic acid” (priority 1977, dated 1978).
Values after ≈ are worked out from the molar mass of the structure shown. One block for each molecule: values may come before it.

Legend:
[1] = volatility determination, retention on glass fiber paper; assay type: physicochemical; details: 50° C. oven for 7 days, average of duplicate determinations
Experimental: (§1) To determine volatility and water solubility of the compounds, the following procedure was used: A 0.1 g. portion of each compound was dissolved in 2.0 ml. acetone. One-half of this solution was placed on a dry, pre-weighed, 7 cm. diameter sheet of glass fiber paper (Reeve Angel #934AH). The fiber paper was allowed to air dry for 24 hours and was re-weighed to determine the amount (0.05 g.) of the compound present. The other half of the solution was used to impregnate similarly another sheet of glass fiber paper. For the volatility determination, one of the papers was placed in a 50° C. oven for 7 days, removed, air cooled for 24 hours, and weighed. The percent retention given in Table II was calculated by the following formula: [formula]

[2] = water-leachability determination, retention on glass fiber paper; assay type: physicochemical; details: leached 8 hours, 20° C. water at 10 ml./sec., average of duplicate determinations
Experimental: as §1
For the water-leachability determination, the second impregnated paper was leached for 8 hours with 20° C. water running at 10 ml./sec. The fiber paper was allowed to air dry for 24 hours, then re-weighed. The percent retention was also calculated by the above formula. The figures recorded in following Table II represent the average of duplicate determinations.

Ceratocystis ips = assay: conventional agar dilution test, 100% growth inhibition; assay type: cell-based; details: read-out: Concentration for 100% Growth Inhibition
Excerpt: (§2) In representative operations, the compounds of the present invention when tested for their activity as antimicrobials using conventional agar dilution tests give complete growth inhibition against C. albicans, T. mentagrophytes, C. pelliculosa, R. nigricans, C. ips, C. fragans and Trichoderma sp. 42. The following Table provides test data summaries in comparison with the activity of art compounds.

Rhizopus nigricans = assay: as above; assay type: cell-based; details: Rhizopus stolonifer, read-out: Concentration for 100% Growth Inhibition
Excerpt: as §2

Pullularia pullulans = assay: as above; assay type: cell-based; details: read-out: Concentration for 100% Growth Inhibition
Excerpt: as §2

Trichoderma species 42 = assay: as above; assay type: cell-based; details: Trichoderma species 42, agar dilution; read-out: Concentration for 100% Growth Inhibition
Excerpt: as §2

Candida pelliculosa = assay: as above; assay type: cell-based; details: Hansenula anomala, read-out: Concentration for 100% Growth Inhibition
Excerpt: as §2

Candida albicans = assay: as above; assay type: cell-based; details: read-out: Concentration for 100% Growth Inhibition
Excerpt: as §2

[3] = tested on: Trichophyton mentagrophytes; assay: as above; assay type: cell-based; details: read-out: Concentration for 100% Growth Inhibition
Excerpt: as §2

Tunicates = assay: marine antifoulant activity, fouling of test panels; details: Compound I 0.14 g. in panel, TBTO 0.13 g. in panel, seawater
Experimental: (§3) The compounds of this invention also repel or are toxic towards lower forms of marine life such as barnacles, and thereby function effectively as marine antifoulants. In evaluating marine antifoulant activity, a comparison of compound (I) vs. a standard antifouling toxicant, bis(tri-n-butyltin) oxide (TBTO), was carried out by treating pre-weighed 21/2 inch by 21/2 inch by 1/4 inch porous silica test panels with a solution of the individual compound in methyl isobutyl ketone, allowing the solvent to air dry to constant weight, and then immersing the panels in seawater at a subtropical location which has dense populations of fouling organisms. Under these conditions, an untreated panel became completely fouled after two months' exposure.

Encrusting Bryozoans = assay: as above; details: Compound I 0.14 g. in panel, TBTO 0.13 g. in panel, seawater
Experimental: as §3

Algae = assay: as above; details: Compound I 0.14 g. in panel, TBTO 0.13 g. in panel, seawater
Experimental: as §3

Tube Worms = assay: as above; details: Compound I 0.14 g. in panel, TBTO 0.13 g. in panel, seawater
Experimental: as §3

Algae Spores = assay: as above; details: Compound I 0.14 g. in panel, TBTO 0.13 g. in panel, seawater
Experimental: as §3

Barnacles = assay: as above; details: Compound I 0.14 g. in panel, TBTO 0.13 g. in panel, seawater
Experimental: as §3

Oysters = assay: as above; details: Compound I 0.14 g. in panel, TBTO 0.13 g. in panel, seawater
Experimental: as §3

Microfouling = assay: as above; details: Compound I 0.14 g. in panel, TBTO 0.13 g. in panel, seawater
Experimental: as §3

Hydroids = assay: as above; details: Compound I 0.14 g. in panel, TBTO 0.13 g. in panel, seawater
Experimental: as §3

mold growth [4] = assay: outdoor exposure test, preservation of acrylic latex paint (modified ASTM D-1006); parameters: key to mold growth rating, 4 Mo. / mold growth rating, 5 Mo. / mold growth rating, 8 Mo.: 1: No mold growth; 2: Trace, <5% growth; 3: Trace, 5-10% growth; 4: 10-25% growth; 25-50% growth; 6: 50-70% growth; 70-90% growth; 8: 90-95% growth; 9: 100% growth; 100% growth, severe; details: for mold growth rating, 4 Mo.: 4 months outdoor; for mold growth rating, 5 Mo.: 5 months outdoor; for mold growth rating, 8 Mo.: 8 months outdoor; for mold growth rating, 10 Mo.: 10 months outdoor
Excerpt: (§4) Using a modification of ASTM D-1006, clear sapwood ponderosa pine boards 1/2 inch × 6 inches × 36 inches were primed with an unpreserved alkyd coating. A single coat of paint (alkyd or acrylic latex) incorporating compound (I) was brush applied. The boards were then exposed to the elements at Lake Jackson, Texas, and periodically readings were taken using the following rating scale: […]

mold growth [5] = assay: outdoor exposure test, preservation of alkyd paint (modified ASTM D-1006); parameters: key to mold growth rating, 8 Mo. / mold growth rating, 4 Mo. / mold growth rating, 5 Mo.: 1: No mold growth; 2: Trace, <5% growth; 3: Trace, 5-10% growth; 4: 10-25% growth; 25-50% growth; 6: 50-70% growth; 70-90% growth; 8: 90-95% growth; 9: 100% growth; 100% growth, severe; details: for mold growth rating, 4 Mo.: 4 months outdoor; for mold growth rating, 5 Mo.: 5 months outdoor; for mold growth rating, 8 Mo.: 8 months outdoor; for mold growth rating, 10 Mo.: 10 months outdoor
Excerpt: as §4

important fungi = assay: fungicidal activity against important fungi; details: in words

- Percent Retention, Volatility [1]: 6%
- Percent Retention, Water Extraction [2]: 52%
- MIC (Ceratocystis ips): 10 µg/mL (≈ 42.7 µM)
- MIC (Rhizopus nigricans): 10 µg/mL (≈ 42.7 µM)
- MIC (Pullularia pullulans): 10 µg/mL (≈ 42.7 µM)
- MIC (Trichoderma species 42): 10 µg/mL (≈ 42.7 µM)
- MIC (Candida pelliculosa): 10 µg/mL (≈ 42.7 µM)
- MIC (Candida albicans): 100 µg/mL (≈ 427 µM)
- MIC [3]: 1 µg/mL (≈ 4.27 µM)
SMILES: N#CSCOc1ccc(Cl)cc1Cl [Compound V]

- Percent Retention, Volatility [1]: 12%
- Percent Retention, Water Extraction [2]: 71%
- MIC (Ceratocystis ips): 500 µg/mL (≈ 2340 µM)
- MIC (Rhizopus nigricans): 500 µg/mL (≈ 2340 µM)
- MIC (Pullularia pullulans): 500 µg/mL (≈ 2340 µM)
- MIC (Trichoderma species 42): 100 µg/mL (≈ 468 µM)
- MIC (Candida pelliculosa): 500 µg/mL (≈ 2340 µM)
- MIC (Candida albicans): 500 µg/mL (≈ 2340 µM)
- MIC [3]: 100 µg/mL (≈ 468 µM)
SMILES: Cc1cc(OCSC#N)ccc1Cl [IV]

- Percent Retention, Volatility [1]: 49%
- Percent Retention, Water Extraction [2]: 96%
- MIC (Ceratocystis ips): 1 µg/mL (≈ 3.3 µM)
- MIC (Rhizopus nigricans): 100 µg/mL (≈ 330 µM)
- MIC (Pullularia pullulans): 1 µg/mL (≈ 3.3 µM)
- MIC (Trichoderma species 42): 1 µg/mL (≈ 3.3 µM)
- MIC (Candida pelliculosa): 10 µg/mL (≈ 33 µM)
- MIC (Candida albicans): 10 µg/mL (≈ 33 µM)
- MIC [3]: 1 µg/mL (≈ 3.3 µM)
SMILES: N#CSCOc1c(Cl)cc(Cl)c(Cl)c1Cl [II, Thiocyanic Acid, (2,3,4,6-Tetrachlorophenoxy)Methyl Ester]

- Percent Retention, Volatility [1]: 74%
- Percent Retention, Water Extraction [2]: 92%
- MIC (Ceratocystis ips): 1 µg/mL (≈ 3.72 µM)
- MIC (Rhizopus nigricans): 10 µg/mL (≈ 37.2 µM)
- MIC (Pullularia pullulans): 10 µg/mL (≈ 37.2 µM)
- MIC (Trichoderma species 42): 10 µg/mL (≈ 37.2 µM)
- MIC (Candida pelliculosa): 10 µg/mL (≈ 37.2 µM)
- MIC (Candida albicans): 10 µg/mL (≈ 37.2 µM)
- MIC [3]: 0.1 µg/mL (≈ 0.372 µM)
SMILES: N#CSCOc1cc(Cl)c(Cl)cc1Cl [Compound I, Thiocyanic Acid, (2,4,5-Trichlorophenoxy)Methyl Ester]
- Percent Fouling of Test Panels (Tunicates): 0%
- Percent Fouling of Test Panels (Encrusting Bryozoans): 0%
- Percent Fouling of Test Panels (Algae): 0%
- Percent Fouling of Test Panels (Tube Worms): 0%
- Percent Fouling of Test Panels (Algae Spores): 30%
- Percent Fouling of Test Panels (Barnacles): 0%
- Percent Fouling of Test Panels (Oysters): 0%
- Percent Fouling of Test Panels (Microfouling): 0%
- Percent Fouling of Test Panels (Hydroids): 0%
- mold growth rating, 4 Mo. (mold growth [4]; 0.5 wt. % (I)): 1
- mold growth rating, 5 Mo. (mold growth [4]; 0.5 wt. % (I)): 1
- mold growth rating, 8 Mo. (mold growth [4]; 0.5 wt. % (I)): 1
- mold growth rating, 10 Mo. (mold growth [4]; 0.5 wt. % (I)): 2 (Trace, <5% growth)
- mold growth rating, 4 Mo. (mold growth [4]; 1.0 wt. % (I)): 1
- mold growth rating, 5 Mo. (mold growth [4]; 1.0 wt. % (I)): 1
- mold growth rating, 8 Mo. (mold growth [4]; 1.0 wt. % (I)): 1
- mold growth rating, 10 Mo. (mold growth [4]; 1.0 wt. % (I)): 2 (Trace, <5% growth)
- mold growth rating, 4 Mo. (mold growth [5]; 0.4 wt. % (I)): 9 (100% growth)
- mold growth rating, 5 Mo. (mold growth [5]; 0.4 wt. % (I)): 9 (100% growth)
- mold growth rating, 8 Mo. (mold growth [5]; 0.4 wt. % (I)): 1
- mold growth rating, 10 Mo. (mold growth [5]; 0.4 wt. % (I)): 2 (Trace, <5% growth)
- mold growth rating, 4 Mo. (mold growth [5]; 0.6 wt. % (I)): 8 (90-95% growth)
- mold growth rating, 5 Mo. (mold growth [5]; 0.6 wt. % (I)): 9 (100% growth)
- mold growth rating, 8 Mo. (mold growth [5]; 0.6 wt. % (I)): 1
- mold growth rating, 10 Mo. (mold growth [5]; 0.6 wt. % (I)): 2 (Trace, <5% growth)
- mold growth rating, 4 Mo. (mold growth [5]; 0.8 wt. % (I)): 4 (10-25% growth)
- mold growth rating, 5 Mo. (mold growth [5]; 0.8 wt. % (I)): 3 (Trace, 5-10% growth)
- mold growth rating, 8 Mo. (mold growth [5]; 0.8 wt. % (I)): 1
- mold growth rating, 10 Mo. (mold growth [5]; 0.8 wt. % (I)): 2 (Trace, <5% growth)
- mold growth rating, 4 Mo. (mold growth [5]; 1.0 wt. % (I)): 1
- mold growth rating, 5 Mo. (mold growth [5]; 1.0 wt. % (I)): 1
- mold growth rating, 8 Mo. (mold growth [5]; 1.0 wt. % (I)): 1
- mold growth rating, 10 Mo. (mold growth [5]; 1.0 wt. % (I)): 2 (Trace, <5% growth)

- Percent Retention, Volatility [1]: 2%
- Percent Retention, Water Extraction [2]: 80%
- MIC (Ceratocystis ips): 500 µg/mL (≈ 2500 µM)
- MIC (Rhizopus nigricans): 500 µg/mL (≈ 2500 µM)
- MIC (Pullularia pullulans): 500 µg/mL (≈ 2500 µM)
- MIC (Trichoderma species 42): 100 µg/mL (≈ 501 µM)
- MIC (Candida pelliculosa): 500 µg/mL (≈ 2500 µM)
- MIC (Candida albicans): 500 µg/mL (≈ 2500 µM)
- MIC [3]: 100 µg/mL (≈ 501 µM)
SMILES: N#CSCOc1ccc(Cl)cc1 [III]

The remaining lines, values behind:

SMILES: CCC[CH2][Sn]([CH2]CCC)([CH2]CCC)[O][Sn]([CH2]CCC)([CH2]CCC)[CH2]CCC [TBTO, bis(tri-n-butyltin) oxide, reference compound]
- Percent Fouling of Test Panels (Tunicates): 0%
- Percent Fouling of Test Panels (Encrusting Bryozoans): 0%
- Percent Fouling of Test Panels (Algae): 0%
- Percent Fouling of Test Panels (Tube Worms): 0%
- Percent Fouling of Test Panels (Algae Spores): 20%
- Percent Fouling of Test Panels (Barnacles): 0%
- Percent Fouling of Test Panels (Oysters): 0%
- Percent Fouling of Test Panels (Microfouling): 0%
- Percent Fouling of Test Panels (Hydroids): 0%

SMILES: N#CSCOc1c(Cl)c(Cl)c(Cl)c(Cl)c1Cl [VI]
- Percent Retention, Volatility [1]: 97%
- Percent Retention, Water Extraction [2]: 98%
- MIC (Ceratocystis ips): > 500 µg/mL
- MIC (Rhizopus nigricans): > 500 µg/mL
- MIC (Pullularia pullulans): > 500 µg/mL
- MIC (Trichoderma species 42): > 500 µg/mL
- MIC (Candida pelliculosa): > 500 µg/mL
- MIC (Candida albicans): > 500 µg/mL
- MIC [3]: 100 µg/mL (≈ 296 µM)

SMILES: N#CSCOc1c(Cl)c(Cl)c(Cl)c(Cl)c1Cl [pentachloro-(thiocyanatomethoxy)- benzene]
- fungicidal activity against important fungi, relative to the compounds of this invention (important fungi): a small fraction of that of the compounds herein claimed
